# Assay results taken from patent US20260256753A1, “USE OF AN OREXIN 2 RECEPTOR AGONIST FOR IMPROVING RESPIRATORY FUNCTION DURING SLEEP” (TAKEDA PHARMACEUTICAL COMPANY LIMITED, priority 2023, published 2026).
# Experiments:
# Type in all cases: in vivo, human
# [1] = system: patients with obstructive sleep apnea; test: Phase 1b crossover study of overnight intravenous infusion in obstructive sleep apnea: safety and tolerability; settings: for placebo adjusted LS mean change in DBP / placebo adjusted LS mean change in SBP: at predose
# Description: (§1) A phase 1b, randomized, double-blind, placebo-controlled, 3-period crossover study was conducted to evaluate the safety, tolerability, pharmacodynamic, and pharmacokinetic effects of overnight intravenous COMPOUND A in patients with obstructive sleep apnea (OSA). This study was planned to further evaluate COMPOUND A intravenous administration (IV) in adults with OSA, hypothesizing that nonwake-promoting exposures of COMPOUND A would increase genioglossal muscle tone and increase airway patency via the increasing activity of hypoglossal motoneurons. The main goal of this study was to evaluate the mechanistic potential of OX2R agonism for treatment of OSA using COMPOUND A IV infusion to determine appropriate use in future trials with an oral OX2R agonist.
# (§2) Participants were male or female, aged 18 to 75 years inclusive, with OSA diagnosed according to the International Classification of Sleep Disorders-3 (ICSD-3) criteria and an apnea hypopnea index (AHI) of 12 to 50 events/hour of sleep. The study consisted of a screening period, 3 treatment periods separated by 2 washout periods, and a follow-up period. A total of 13 participants were enrolled and randomized, of which 12 (92.3%) participants completed all planned doses of study drug and the study.
# (§3) Eligible participants were randomly assigned (in a double-blinded manner) to 1 of 6 treatment sequences. In each treatment period, participants underwent 3 UACI assessments, a 10-minute evaluation that tested the key biological mechanism that causes OSA (as described by Osman, A. M., et al., 2019, Sleep, 42 (7), 1-10), followed by an overnight polysomnography (PSG). After the first baseline UACI assessment (U1), an IV infusion regimen of COMPOUND A or placebo was administered over approximately 10 hours to achieve specific plasma concentrations to evaluate the effect of COMPOUND A on the UACI and PSG metrics. Target plasma concentrations for the low-dose COMPOUND A IV regimen were 10 ng/mL for the second UACI (U2), 30 ng/ml for the third UACI (U3), and 10 ng/ml for the overnight PSG. Target plasma concentrations for the high-dose COMPOUND A IV regimen were 30 ng/mL for the U2, 90 ng/mL for the U3, and 30 ng/ml for the overnight PSG.
# (§4) To achieve the target exposures for the UACI assessments (U2 and U3), there was a 20-minute loading period, followed by a 15-minute maintenance period for each. The overnight maintenance dose (approximately 490 minutes) covered the duration of a standard overnight PSG (approximately 8 hours). Doses were selected to cover the potential pharmacologically active concentration range for upper airway collapsibility. The concentration of COMPOUND A in solution was such that participants received the same volume of fluid in the low-dose COMPOUND A regimen, the high-dose COMPOUND A regimen, and placebo, allowing the study to be double-blinded and ensuring all participants were infused with the same volume of fluid.
# On Day 1 of each treatment period, participants checked in approximately 3 hours prior to the scheduled dosing time. The procedure started in the evening to reduce the confounding factors of endogenous OX levels on assessments. Start time was adjusted based on the patient's usual bedtime. Following a physical examination, urine drug screen, and alcohol breathalyzer test, participants were fitted with an IV catheter for placebo/COMPOUND A infusion, electroencephalogram (EEG) electrodes to monitor wakefulness, choanal and epiglottic pressure sensors, and a nasal mask and pneumotachograph to measure airflow (Osman, et al. 2019).
# Following the baseline UACI measurements, IV infusion of placebo or COMPOUND A began. COMPOUND A was tested at 2 concentrations in a stepwise manner, consisting of a 20 minute loading period followed by a 15 minute maintenance period per step. The UACI was tested at each concentration during the maintenance period. […]
# [2] = system: patients with obstructive sleep apnea; test: Phase 1b crossover study in obstructive sleep apnea: overnight polysomnography (PSG)
# Description: as §1, §2, §3, §4
# Following the baseline UACI measurements, IV infusion of placebo or COMPOUND A began. COMPOUND A was tested at 2 concentrations in a stepwise manner, consisting of a 20 minute loading period followed by a 15 minute maintenance period per step. The UACI was tested at each concentration during the maintenance period. A Karolinska Sleepiness Scale (KSS) was administered immediately prior to each UACI testing period to gauge subjective sleepiness. After the U3 test, a KSS was administered, after which the UACI testing equipment (pressure sensors, genioglossus EMG electrodes) was removed with the exception of EEG electrodes that remained in place to record PSG throughout the evening. Prior to lights off, a final KSS was administered. Lights-off occurred, and participants were then allowed to sleep until the following morning (Day 2). Infusion of COMPOUND A/placebo was maintained throughout the night during the nocturnal PSG (nPSG) and ended approximately 8 hours after lights off. Participants were then discharged on Day 2. […]
# [3] = system: patients with obstructive sleep apnea; test: Phase 1b crossover study in obstructive sleep apnea: upper airway collapsibility index (UACI) during wakefulness
# Description: as §1
# as §3, with “Target plasma concentrations for the low-dose COMPOUND A IV regimen were 10 ng/mL for the second UACI (U2), 30 ng/ml for the third UACI (U3), and 10 ng/ml for the overnight PSG. Target plasma concentrations for the high-dose COMPOUND A IV regimen were 30 ng/mL for the U2, 90 ng/mL for the U3, and 30 ng/ml for the overnight PSG.” left out
# [4] = 30 ng/ml continuously throughout the sleep period
structure (smiles),measurement,setting,value
"COC(=O)N1CCC[C@H](NS(C)(=O)=O)[C@@H]1CO[C@H]1CC[C@@H](c2ccccc2)CC1 (relative stereo) [Compound A, methyl(2R,3S)-3-((methylsulfonyl)amino)-2-(((cis-4-phenylcyclohexyl)oxy)methyl) piperidine-1-carboxylate]",participants who experienced drug-related TEAEs,"[1]; all treatment periods (low-dose, high-dose, placebo), 13 participants",23.1%
same,number of drug-related TEAEs,"[1]; all treatment periods (low-dose, high-dose, placebo), all mild",4
same,deaths or serious TEAEs,[1]; during the study,No deaths or serious TEAEs
same,drug related TEAEs,[1]; high dose regimen,no drug related TEAEs
same,placebo adjusted LS mean change in DBP,[1]; high dose regimen,1.84 mmHg
same,placebo adjusted LS mean change in SBP,[1]; high dose regimen,9.01 mmHg
same,consequence of TEAE of blood pressure increased,[1]; low dose regimen,led to study drug discontinuation
same,placebo adjusted LS mean change in DBP,[1]; low dose regimen,0.29 mmHg
same,placebo adjusted LS mean change in SBP,[1]; low dose regimen,2.44 mmHg
same,dose related trend of most frequent TEAE (headache),[1]; low versus high dose regimen,no dose related trend was observed
same,tolerability,"[1]; low-dose and high-dose IV regimens, adult participants with OSA",generally well tolerated with no safety concerns
same,drug-related TEAE of blood pressure increased (number),[1]; low-dose regimen,1
same,drug-related TEAE of myalgia (number),[1]; low-dose regimen,1
same,drug-related TEAEs of headache (number),[1]; low-dose regimen and placebo together,2
same,intensity of TEAEs,"[1]; whole study, moderate headache on low dose regimen, not related to study drug",mild in intensity except for 1 moderate TEAE of headache
same,REM,[2]; [4],significantly decreased
same,ability to fall asleep,[2]; [4],did not cause an inability to fall asleep
same,sleep efficiency,[2]; [4],reducing
same,wake after sleep onset,[2]; [4],increasing
same,arousal threshold in response to ventilatory disturbance,[2]; high-dose regimen,decreased
same,hypoxic burden estimate,[2]; high-dose regimen,≤ 53 %*minutes/hour
same,loop gain,[2]; high-dose regimen,decreased
same,AHI LS mean,[2]; high-dose regimen of 30 ng/ml overnight,less than 30 events/hour
same,decrease in AHI,"[2]; high-dose regimen of 30 ng/ml overnight, statistically and clinically significant",approximately 9 events/hour
same,pharyngeal collapsibility during sleep (Vpassive and Vactive),"[2]; high-dose regimen, OSA endotypes",appeared to decrease
same,hypoxic burden,"[2]; high-dose regimen, placebo-adjusted difference statistically significant",beneficial reduction in hypoxic burden
same,hypoxic burden estimate,[2]; low-dose regimen,≤ 53 %*minutes/hour
same,upper airway collapsibility as measured by UACI,[3],no consistent improvement
